Key:
Assay in all cases: relative viability (nuclei count vs DMSO), 5 days (fraction); higher = more cells survive
JZL-184 + Lapatinib = compound: C1CN(CCC1C(C2=CC3=C(C=C2)OCO3)(C4=CC5=C(C=C4)OCO5)O)C(=O)OC6=CC=C(C=C6)[N+](=O)[O-] [JZL-184] + CS(=O)(=O)CCNCc1ccc(-c2ccc3ncnc(Nc4ccc(OCc5cccc(F)c5)c(Cl)c4)c3c2)o1 [Lapatinib] (partner 2 µM)
How it was run: (§1)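 Relative viability was taken as the ratio of nuclei in treated wells to nuclei in vehicle wells. Lung cancer cell lines in 1536-well plates received compounds by pin tool one day after seeding, either one drug alone or a fixed anchor-drug dose plus five library-drug doses (not always all listed) in √10 steps. Nuclei were counted on 4× images after 5 days of treatment, and values are medians of duplicate plates.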

JZL-184 + Pictilisib = compound: C1CN(CCC1C(C2=CC3=C(C=C2)OCO3)(C4=CC5=C(C=C4)OCO5)O)C(=O)OC6=CC=C(C=C6)[N+](=O)[O-] [JZL-184] + CS(=O)(=O)N1CCN(Cc2cc3nc(-c4cccc5[nH]ncc45)nc(N4CCOCC4)c3s2)CC1 [Pictilisib] (partner 1 µM)
How it was run: as §1

JZL-184 + Alpelisib = compound: C1CN(CCC1C(C2=CC3=C(C=C2)OCO3)(C4=CC5=C(C=C4)OCO5)O)C(=O)OC6=CC=C(C=C6)[N+](=O)[O-] [JZL-184] + Cc1nc(NC(=O)N2CCC[C@H]2C(N)=O)sc1-c1ccnc(C(C)(C)C(F)(F)F)c1 [Alpelisib] (partner 2 µM)
How it was run: as §1

JZL-184 + Dasatinib = compound: C1CN(CCC1C(C2=CC3=C(C=C2)OCO3)(C4=CC5=C(C=C4)OCO5)O)C(=O)OC6=CC=C(C=C6)[N+](=O)[O-] [JZL-184] + Cc1nc(Nc2ncc(C(=O)Nc3c(C)cccc3Cl)s2)cc(N2CCN(CCO)CC2)n1 [Dasatinib] (partner 0.075 µM)
How it was run: as §1

JZL-184 + Phenformin = compound: C1CN(CCC1C(C2=CC3=C(C=C2)OCO3)(C4=CC5=C(C=C4)OCO5)O)C(=O)OC6=CC=C(C=C6)[N+](=O)[O-] [JZL-184] + N=C(N)NC(=N)NCCc1ccccc1 [Phenformin] (partner 250 µM)
How it was run: as §1

Cell Line	relative viability (JZL-184 + Lapatinib; first compound 0.04 µM)	relative viability (JZL-184 + Lapatinib; first compound 0.4 µM)	relative viability (JZL-184 + Lapatinib; first compound 1.265 µM)	relative viability (JZL-184 + Lapatinib; first compound 4 µM)	relative viability (JZL-184 + Pictilisib; first compound 0.04 µM)	relative viability (JZL-184 + Pictilisib; first compound 0.4 µM)	relative viability (JZL-184 + Pictilisib; first compound 1.265 µM)	relative viability (JZL-184 + Pictilisib; first compound 4 µM)	relative viability (JZL-184 + Alpelisib; first compound 0.04 µM)	relative viability (JZL-184 + Alpelisib; first compound 0.4 µM)	relative viability (JZL-184 + Alpelisib; first compound 1.265 µM)	relative viability (JZL-184 + Alpelisib; first compound 4 µM)	relative viability (JZL-184 + Dasatinib; first compound 0.04 µM)	relative viability (JZL-184 + Dasatinib; first compound 0.4 µM)	relative viability (JZL-184 + Dasatinib; first compound 1.265 µM)	relative viability (JZL-184 + Dasatinib; first compound 4 µM)	relative viability (JZL-184 + Phenformin; first compound 0.04 µM)	relative viability (JZL-184 + Phenformin; first compound 0.4 µM)	relative viability (JZL-184 + Phenformin; first compound 1.265 µM)	relative viability (JZL-184 + Phenformin; first compound 4 µM)
NCI-H23	1.39	0.969	1.26	1.07	0.561	0.432	0.538	0.492	0.876	0.631	0.587	0.646	0.896	0.81	0.864	0.751	0.879	0.793	0.817	0.855
NCI-H322M	0.654	0.599	0.562	0.578	0.494	0.472	0.554	0.495	0.656	0.777	0.749	0.775	0.252	0.265	0.264	0.252	0.844	0.718	0.818	0.662
NCI-H358	0.52	0.418	0.448	0.436	0.353	0.399	0.319	0.444	1.05	0.803	0.973	0.788	0.167	0.134	0.15	0.155	0.422	0.32	0.304	0.328
NCI-H460	1.86	0.894	1.09	0.881	0.385	0.332	0.404	0.374	0.643	0.465	0.47	0.401	0.62	0.394	0.553	0.503	0.626	0.483	0.521	0.485
NCI-H520	0.79	0.76	0.856	0.631	0.351	0.221	0.311	0.245	1.02	0.965	1.02	0.897	0.188	0.2	0.178	0.168	0.533	0.48	0.739	0.485
NCI-H596	1.12	0.948	1.04	0.992	0.397	0.393	0.429	0.356	0.501	0.487	0.553	0.37	0.739	0.437	0.658	0.566	0.895	0.663	0.895	0.769
NCI-H647	1.35	0.969	1.28	1.14	0.495	0.294	0.566	0.468	1.15	0.957	1.07	1.2	0.177	0.174	0.283	0.145	0.532	0.527	0.595	0.546
NCI-H650	0.916	0.793	1.07	0.894	1.08	0.857	0.884	0.876	1.23	0.951	1.16	1.1	0.439	0.392	0.472	0.441	0.44	0.388	0.469	0.422
NCI-H661	0.505	0.481	0.637	0.382	0.372	–	0.455	0.452	0.453	0.483	0.707	0.717	0.95	0.851	0.907	0.867	0.259	0.287	0.292	0.332
NCI-H727	0.92	0.688	0.862	0.807	0.505	0.393	0.333	0.473	0.539	0.627	0.542	0.629	0.37	0.443	0.398	0.334	0.676	0.517	0.509	0.45
NCI-H838	1.19	1.04	1.16	0.94	0.53	0.449	0.499	0.482	1.08	1.09	1.03	0.957	0.286	0.307	0.289	0.3	0.594	0.601	0.643	0.608
NCI-H1355	0.974	0.921	1.02	0.943	0.431	0.357	0.555	0.396	0.774	0.826	0.828	0.81	0.723	0.662	0.783	0.672	0.421	0.427	0.505	0.429
NCI-H1395	0.997	0.953	0.91	0.995	0.596	0.536	0.761	0.551	0.993	1.01	1.1	1.04	0.424	0.435	0.414	0.404	0.392	0.421	0.491	0.413
NCI-H1437	0.984	0.717	0.773	0.759	0.466	0.408	0.366	0.468	1.12	0.971	0.92	0.916	0.414	0.304	0.434	0.405	0.301	0.307	0.302	0.288
NCI-H1563	0.951	0.923	0.972	0.868	0.673	0.676	0.669	0.675	0.934	0.964	0.899	0.914	0.515	0.374	0.453	0.474	0.694	0.636	0.681	0.64
